ChEMBL document CHEMBL3392926, “Antiprotozoal Activity Profiling of Approved Drugs: A Starting Point toward Drug Repositioning”
“And” between values parts separate entries of the source, which are not always exact repeats. Equal values may be shown once.

Key:
cells [1] = format: functional, cell-based; settings: Rattus norvegicus, L6, 72 h
Description: DNDI: Cytotoxicity in Vitro, 72 hour, in rat skeletal myoblast cells

Trypanosoma cruzi = test: microbe, parasite or virus in culture; format: functional, organism-based, Tulahuen C4 (LacZ); settings: Trypanosoma cruzi, Tulahuen C4 (LacZ), 96 h
Description: DNDI: Chagas in Vitro, 96 hour

[2] = tested on: Trypanosoma brucei rhodesiense; test: microbe, parasite or virus in culture; format: functional, organism-based, STIB 900; settings: Trypanosoma brucei, STIB 900, 72 h
Description: DNDI: HAT in Vitro, 72 hour

cells [3] = format: functional, cell-based; settings: Mus musculus, NMRI, BalbC or CD1 mice, Macrophage, 96 h
Description: DNDI: Cytotoxicity in Vitro, 96 hour, in mouse macrophages (infected-amastigotes)

Plasmodium falciparum = test: microbe, parasite or virus in culture; format: functional, organism-based, K1
Description: DNDI: Malaria in Vitro, 72 hour

[4] = DNDI: Cytotoxicity in Vitro, 96 hour, in primary peritoneal mouse macrophages; format: functional, cell-based; settings: Macrophage
Leishmania donovani [5] = test: microbe, parasite or virus in culture; format: functional, organism-based, MHOM/ET/67/L82
Description: DNDI: Leish (axenic) in Vitro, 72 hour

Leishmania donovani [6] = test: microbe, parasite or virus in culture; format: functional, organism-based, MHOM/ET/67/L82; remark: listed apart in the source
Description: DNDI: Leish (macro) in Vitro, 96 hour

[7] = Plasmodium falciparum, K1, 72 h
[8] = Leishmania donovani, MHOM/ET/67/L82, 72 h
[9] = Leishmania donovani, MHOM/ET/67/L82, 96 h

Row | SMILES | IC50 (cells [1]) [µM] | IC50 (Trypanosoma cruzi) [µM] | IC50 [2] [µM] | IC50 (cells [3]) [µM] | IC50 (Plasmodium falciparum; [7]) [µM] | IC50 [4] [µM] | IC50 (Leishmania donovani [5]; [8]) [µM] | IC50 (Leishmania donovani [6]; [9]) [µM] | IC50 (Plasmodium falciparum) [µM] | IC50 (Leishmania donovani [5]) | IC50 (Leishmania donovani [6]) [µM]
1 | C[C@@H]1[C@H](O)[C@@H](C)/C=C/C=C/C=C/C=C/C=C/C=C/C=C/[C@H](O[C@@H]2O[C@H](O)[C@@H](O)[C@H](N)[C@@H]2O)C[C@@H]2O[C@](O)(C[C@@H](O)C[C@@H](O)[C@H](O)CC[C@@H](O)C[C@@H](O)CC(=O)O[C@H]1C)C[C@H](O)[C@H]2C(=O)O | 10.3 | 56.7 | 0.76 | 32.4 | 0.8 | 22.4 | 0.34 | 0.31 | – | – | –
2 | Clc1ccc(COC(Cn2ccnc2)c2ccc(Cl)cc2Cl)cc1 (stereo not given) [ECONAZOLE] | 15.6 | – | – | 67.6 | – | 22.8 | – | – | – | – | –
3 | CC1CS(=O)(=O)CCC1/N=N/c1ccc([N+](=O)[O-])o1 (stereo not given) | 87 | 0.19 | 1.44 | > 34.8 | – | 15.7 | 2.76 | 20.7 | – | – | –
4 | Clc1ccccc1C(c1ccccc1)(c1ccccc1)n1ccnc1 [CLOTRIMAZOLE] | 2.99 | – | – | 87 | – | 32.5 | – | – | – | – | –
5 | Clc1ccc(C(Cn2ccnc2)OCc2ccsc2Cl)c(Cl)c1 (stereo not given) [TIOCONAZOLE] | – | – | – | – | 1.07 | 51.1 | – | > 7.74 | 0.63 | 22.4 µM and 9.26 µM | 13.1
6 | CO[C@H]1/C=C/O[C@@]2(C)Oc3c(C)c(O)c4c(c3C2=O)C2=NC3(CCN(CC(C)C)CC3)NC2=C(NC(=O)/C(C)=C\C=C\[C@H](C)[C@H](O)[C@@H](C)[C@@H](O)[C@H](C)[C@H](OC(C)=O)[C@H]1C)C4=O | 60.9 | 27.5 | 12.6 | > 35.4 | 1.59 | – | 56.4 | > 35.4 | – | – | –
7 | CCN(CC)CCCCCCNc1cc(OC)cc2c(C)ccnc12 [SITAMAQUINE] | 32.3 | 22 | 7.39 | > 29.1 | 0.08 | 21.4 | 13.7 | 19.5 | – | – | –
8 | COc1cc(C)c2c(Oc3cccc(C(F)(F)F)c3)c(OC)cc(N[C@H](C)CCCN)c2n1 | 5.52 | 6.11 | 1.42 | 6.47 | 0.27 | – | 17.9 | > 2.16 | – | – | –
9 | CCC[C@@]1(CCc2ccccc2)CC(O)=C([C@H](CC)c2cccc(NS(=O)(=O)c3ccc(C(F)(F)F)cn3)c2)C(=O)O1 | 53.4 | 28.2 | 26.4 | > 49.8 | 44.6 | – | 1.64 | > 49.8 | – | – | –
10 | OCCN(CCO)c1nc(N2CCCCC2)c2nc(N(CCO)CCO)nc(N3CCCCC3)c2n1 [DIPYRIDAMOLE] | 38.6 | 29.3 | 7.45 | > 59.5 | 1.3 | – | 62 | > 59.5 | – | – | –
11 | COC1=CC(=O)C[C@@H](C)[C@]12Oc1c(Cl)c(OC)cc(OC)c1C2=O [GRISEOFULVIN] | 20.5 | 87.3 | 40 | > 85 | 75.1 | – | 87 | > 85 | – | – | –
12 | CN(C/C=C/C#CC(C)(C)C)Cc1cccc2ccccc12 [TERBINAFINE] | 47 | 40.9 | 95.2 | > 91.5 | 7.72 | – | 23 | 69.5 | – | – | –
13 | N=C(N)c1ccc(OCCCCCOc2ccc(C(=N)N)cc2)cc1 [PENTAMIDINE] | 8.87 | 4.44 | 0.01 | > 29.4 | – | 7.78 | 19.8 | – | – | – | –
14 | CN1CCN(CCCN2c3ccccc3Sc3ccc(C(F)(F)F)cc32)CC1 [TRIFLUOPERAZINE] | 11 | 10.1 | 1.23 | 24.5 | 1.48 | – | 52.9 | > 7.36 | – | – | –
15 | CCN(CCCCOC(=O)c1ccc(OC)c(OC)c1)C(C)Cc1ccc(OC)cc1 (stereo not given) [MEBEVERINE] | 70.8 | 3.89 | 54.2 | > 69.8 | 1.74 | – | > 210 | 54.9 | – | – | –
16 | O[C@@H](c1cc(C(F)(F)F)nc2c(C(F)(F)F)cccc12)[C@H]1CCCCN1 [(S,R)-MEFLOQUINE] | 3.25 | 4.48 | 0.53 | 7.23 | 0.0024 | – | 38.6 | 2.41 | – | – | –
17 | COc1cc(N[C@H](C)CCCN)c2ncccc2c1 | 43.2 | 17.9 | 4.78 | > 38.6 | – | 39.7 | 48.6 | 28.2 | – | – | –
18 | CCC[C@@H]1C[C@@H](C(=O)N[C@H]([C@@H]2O[C@H](SC)[C@H](O)[C@@H](O)[C@H]2O)[C@@H](C)O)N(C)C1 | > 221 | > 221 | > 221 | > 73.8 | 7.08 | – | > 221 | > 73.8 | – | – | –
19 | Cc1c(O)cccc1C(=O)N[C@@H](CSc1ccccc1)[C@H](O)CN1C[C@H]2CCCC[C@H]2C[C@H]1C(=O)NC(C)(C)C | 12.1 | 10.2 | 20.6 | > 52.8 | 10.4 | – | 9.62 | 20.2 | – | – | –
20 | Cc1cc(C2CCCCC2)n(O)c(=O)c1 [CICLOPIROX OLAMINE] | 1.04 | 2.49 | 0.8 | > 11.2 | 3.75 | 20.3 | 1.64 | 9.09 | – | – | –
21 | CC(C)/N=c1\cc2n(-c3ccc(Cl)cc3)c3ccccc3nc-2cc1Nc1ccc(Cl)cc1 [CLOFAZIMINE] | 9.97 | 38.2 | 7.63 | 6.34 | 4.1 | 10.7 | 22.4 | 0.95 | – | – | –
22 | COc1ccc2[nH]c([S+]([O-])Cc3ncc(C)c(OC)c3C)nc2c1 (stereo not given) [OMEPRAZOLE] | 126 | 68.3 | 51.8 | > 86.9 | 13.2 | – | 90.9 | > 86.9 | – | – | –
23 | Clc1ccc(COC(Cn2ccnc2)c2ccc(Cl)cc2Cl)c(Cl)c1 (stereo not given) [MICONAZOLE] | 15.4 | – | – | 62.7 | – | 23.9 | – | – | – | – | –
24 | CN(C)CCCN1c2ccccc2Sc2ccccc21 [PROMAZINE] | 30.1 | 49.1 | 2.16 | > 35.2 | 0.49 | – | > 316 | > 35.2 | – | – | –
25 | NC(=O)c1cccnc1 [NIACINAMIDE] | > 737 | > 737 | > 737 | > 246 | > 40.9 | – | > 737 | > 246 | – | – | –
